From PubChem BioAssay (NCI)
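Five concentrations, 48 hours, 96-well plates. TGI is the concentration that stops growth completely.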

Legend:
Experiment in all cases: NCI anticancer screen, dose series, 48 h
CAKI-1 renal = system: CAKI-1 renal
HOP-92 NSCLC = system: HOP-92 NSCLC
OVCAR-4 ovarian = system: OVCAR-4 ovarian
786-0 renal = system: 786-0 renal
A498 renal = system: A498 renal
A549 NSCLC = system: A549 NSCLC
ACHN renal = system: ACHN renal
BT-549 breast = system: BT-549 breast
CCRF-CEM leukemia = system: CCRF-CEM leukemia
COLO 205 colon = system: COLO 205 colon
DU-145 prostate = system: DU-145 prostate
EKVX NSCLC = system: EKVX NSCLC
HCC-2998 colon = system: HCC-2998 colon
HCT-116 colon = system: HCT-116 colon
HCT-15 colon = system: HCT-15 colon
K-562 leukemia = system: K-562 leukemia
KM12 colon = system: KM12 colon
LOX IMVI melanoma = system: LOX IMVI melanoma
M14 melanoma = system: M14 melanoma
MCF7 breast = system: MCF7 breast
MDA-MB-231 breast = system: MDA-MB-231 breast
MDA-MB-435 = system: MDA-MB-435
MOLT-4 leukemia = system: MOLT-4 leukemia
NCI-H226 lung = system: NCI-H226 lung
NCI-H23 lung = system: NCI-H23 lung
NCI-H460 lung = system: NCI-H460 lung
NCI/ADR-RES ovarian = system: NCI/ADR-RES ovarian
OVCAR-5 ovarian = system: OVCAR-5 ovarian
PC-3 prostate = system: PC-3 prostate
RPMI-8226 leukemia = system: RPMI-8226 leukemia
SF-268 CNS = system: SF-268 CNS
SF-295 CNS = system: SF-295 CNS
SF-539 CNS = system: SF-539 CNS
SK-MEL-2 melanoma = system: SK-MEL-2 melanoma
SK-MEL-28 melanoma = system: SK-MEL-28 melanoma
SK-MEL-5 melanoma = system: SK-MEL-5 melanoma
SK-OV-3 ovarian = system: SK-OV-3 ovarian
SNB-19 CNS = system: SNB-19 CNS
SW-620 colon = system: SW-620 colon
T-47D breast = system: T-47D breast
TK-10 renal = system: TK-10 renal
U251 CNS = system: U251 CNS
UACC-257 melanoma = system: UACC-257 melanoma
UACC-62 melanoma = system: UACC-62 melanoma
UO-31 renal = system: UO-31 renal
HL-60(TB) leukemia = system: HL-60(TB) leukemia
HOP-62 NSCLC = system: HOP-62 NSCLC
HS 578T breast = system: HS 578T breast
HT29 colon = system: HT29 colon
IGROV1 ovarian = system: IGROV1 ovarian
OVCAR-8 ovarian = system: OVCAR-8 ovarian
RXF 393 renal = system: RXF 393 renal
SNB-75 CNS = system: SNB-75 CNS
SR leukemia = system: SR leukemia
MALME-3M melanoma = system: MALME-3M melanoma
NCI-H522 lung = system: NCI-H522 lung
OVCAR-3 ovarian = system: OVCAR-3 ovarian
SN12C renal = system: SN12C renal

CC(=O)OCC1OC(n2c(=S)n(-c3ccccc3)c(=O)c3ccccc32)C(OC(C)=O)C(OC(C)=O)C1OC(C)=O (configuration not stated)
TGI (CAKI-1 renal): > 100 µM | TGI (HOP-92 NSCLC): > 100 µM | TGI (OVCAR-4 ovarian): > 100 µM

CCC1OC2C(CC=C(C)C)=C3OC(C)(O)C(C)(CC)C(=O)C3=C3OC(=O)C=C1C32 (configuration not stated)
TGI (786-0 renal): > 100 µM | TGI (A498 renal): > 100 µM | TGI (A549 NSCLC): > 100 µM | TGI (ACHN renal): 94.6 µM | TGI (BT-549 breast): 49.5 µM | TGI (CAKI-1 renal): > 100 µM | TGI (CCRF-CEM leukemia): > 100 µM | TGI (COLO 205 colon): 37 µM | TGI (DU-145 prostate): > 100 µM | TGI (EKVX NSCLC): > 100 µM | TGI (HCC-2998 colon): > 100 µM | TGI (HCT-116 colon): 36.9 µM | TGI (HCT-15 colon): > 100 µM | TGI (HOP-92 NSCLC): 71.2 µM | TGI (K-562 leukemia): 86.8 µM | TGI (KM12 colon): > 100 µM | TGI (LOX IMVI melanoma): 27.3 µM | TGI (M14 melanoma): > 100 µM | TGI (MCF7 breast): > 100 µM | TGI (MDA-MB-231 breast): 41.1 µM | TGI (MDA-MB-435): > 100 µM | TGI (MOLT-4 leukemia): > 100 µM | TGI (NCI-H226 lung): > 100 µM | TGI (NCI-H23 lung): 70.7 µM | TGI (NCI-H460 lung): 92.5 µM | TGI (NCI/ADR-RES ovarian): 95.8 µM | TGI (OVCAR-4 ovarian): > 100 µM | TGI (OVCAR-5 ovarian): > 100 µM | TGI (PC-3 prostate): > 100 µM | TGI (RPMI-8226 leukemia): > 100 µM | TGI (SF-268 CNS): > 100 µM | TGI (SF-295 CNS): > 100 µM | TGI (SF-539 CNS): 23.1 µM | TGI (SK-MEL-2 melanoma): 36.1 µM | TGI (SK-MEL-28 melanoma): > 100 µM | TGI (SK-MEL-5 melanoma): 34.9 µM | TGI (SK-OV-3 ovarian): > 100 µM | TGI (SNB-19 CNS): > 100 µM | TGI (SW-620 colon): > 100 µM | TGI (T-47D breast): > 100 µM | TGI (TK-10 renal): > 100 µM | TGI (U251 CNS): > 100 µM | TGI (UACC-257 melanoma): 96.2 µM | TGI (UACC-62 melanoma): 83.4 µM | TGI (UO-31 renal): 69.6 µM

COc1ccc(Oc2nc3c(N)cc(C(F)(F)F)cc3nc2-c2ccccc2)cc1
TGI (786-0 renal): 56.4 µM | TGI (A498 renal): 55.6 µM | TGI (ACHN renal): > 100 µM | TGI (BT-549 breast): > 100 µM | TGI (CAKI-1 renal): 44 µM | TGI (CCRF-CEM leukemia): > 100 µM | TGI (COLO 205 colon): 25.6 µM | TGI (EKVX NSCLC): 28.9 µM | TGI (HCC-2998 colon): > 100 µM | TGI (HCT-116 colon): > 100 µM | TGI (HCT-15 colon): > 100 µM | TGI (HL-60(TB) leukemia): > 100 µM | TGI (HOP-62 NSCLC): 49.5 µM | TGI (HOP-92 NSCLC): > 100 µM | TGI (HS 578T breast): 43 µM | TGI (HT29 colon): 22.8 µM | TGI (IGROV1 ovarian): 43.5 µM | TGI (K-562 leukemia): > 100 µM | TGI (KM12 colon): 31.6 µM | TGI (LOX IMVI melanoma): 53.6 µM | TGI (M14 melanoma): 41.3 µM | TGI (MCF7 breast): 23.8 µM | TGI (MDA-MB-231 breast): > 100 µM | TGI (MDA-MB-435): > 100 µM | TGI (MOLT-4 leukemia): > 100 µM | TGI (NCI-H226 lung): 35.7 µM | TGI (NCI-H23 lung): > 100 µM | TGI (NCI-H460 lung): 57.8 µM | TGI (NCI/ADR-RES ovarian): > 100 µM | TGI (OVCAR-4 ovarian): > 100 µM | TGI (OVCAR-8 ovarian): > 100 µM | TGI (PC-3 prostate): 59.6 µM | TGI (RPMI-8226 leukemia): > 100 µM | TGI (RXF 393 renal): 24.9 µM | TGI (SF-268 CNS): 64.5 µM | TGI (SF-295 CNS): 41.2 µM | TGI (SF-539 CNS): > 100 µM | TGI (SK-MEL-2 melanoma): 25.9 µM | TGI (SK-MEL-28 melanoma): > 100 µM | TGI (SK-MEL-5 melanoma): > 100 µM | TGI (SK-OV-3 ovarian): 43.7 µM | TGI (SNB-19 CNS): > 100 µM | TGI (SNB-75 CNS): 40.6 µM | TGI (SR leukemia): > 100 µM | TGI (SW-620 colon): > 100 µM | TGI (T-47D breast): 26.9 µM | TGI (TK-10 renal): > 100 µM | TGI (U251 CNS): > 100 µM | TGI (UACC-257 melanoma): > 100 µM | TGI (UACC-62 melanoma): > 100 µM | TGI (UO-31 renal): > 100 µM

COc1ccc(C=NCCCN=Cc2ccc(OC)cc2O)c(O)c1
TGI (786-0 renal): > 100 µM | TGI (A498 renal): > 100 µM | TGI (A549 NSCLC): > 100 µM | TGI (ACHN renal): > 100 µM | TGI (BT-549 breast): > 100 µM | TGI (CCRF-CEM leukemia): > 100 µM | TGI (DU-145 prostate): > 100 µM | TGI (EKVX NSCLC): > 100 µM | TGI (HCT-116 colon): > 100 µM | TGI (HCT-15 colon): > 100 µM | TGI (HL-60(TB) leukemia): > 100 µM | TGI (HOP-62 NSCLC): > 100 µM | TGI (HOP-92 NSCLC): 68.8 µM | TGI (HS 578T breast): 63.7 µM | TGI (HT29 colon): > 100 µM | TGI (IGROV1 ovarian): > 100 µM | TGI (K-562 leukemia): > 100 µM | TGI (KM12 colon): > 100 µM | TGI (M14 melanoma): > 100 µM | TGI (MALME-3M melanoma): 71.5 µM | TGI (MCF7 breast): > 100 µM | TGI (MDA-MB-231 breast): > 100 µM | TGI (MDA-MB-435): > 100 µM | TGI (MOLT-4 leukemia): > 100 µM | TGI (NCI-H226 lung): 59.3 µM | TGI (NCI-H23 lung): > 100 µM | TGI (NCI-H460 lung): > 100 µM | TGI (NCI-H522 lung): > 100 µM | TGI (OVCAR-3 ovarian): 51.2 µM | TGI (OVCAR-4 ovarian): > 100 µM | TGI (OVCAR-5 ovarian): > 100 µM | TGI (OVCAR-8 ovarian): > 100 µM | TGI (PC-3 prostate): > 100 µM | TGI (RPMI-8226 leukemia): > 100 µM | TGI (RXF 393 renal): > 100 µM | TGI (SF-295 CNS): 54.5 µM | TGI (SK-MEL-2 melanoma): > 100 µM | TGI (SK-MEL-28 melanoma): > 100 µM | TGI (SN12C renal): 90.6 µM | TGI (SNB-19 CNS): > 100 µM | TGI (SNB-75 CNS): 64.8 µM | TGI (SR leukemia): > 100 µM | TGI (SW-620 colon): > 100 µM | TGI (TK-10 renal): > 100 µM | TGI (U251 CNS): > 100 µM | TGI (UACC-257 melanoma): > 100 µM | TGI (UACC-62 melanoma): > 100 µM | TGI (UO-31 renal): > 100 µM
